According to US8802597B2, “Herbicidal pyrimidines” (E I du Pont de Nemours and Company, priority 2003, dated 2014):
Where two headings read alike, the source gives them in different places.

What was measured:
Assay in all cases: Test C pre/postemergence
Type in all cases: in vivo
[1] = system: Surinam grass (Brachiaria decumbens); settings: Urochloa decumbens; for pest or weed control at 125 g/ha: 125 g ai/ha; for pest or weed control at 500 g/ha: 500 g ai/ha; for pest or weed control at 62 g/ha: 62 g ai/ha; for pest or weed control at 250 g/ha: 250 g ai/ha
Outline: (§1)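 Applications: preemergence onto seeded soil and postemergence onto 1- to 4-leaf seedlings, compound carried in non-phytotoxic solvent plus surfactant. Kept in greenhouse 12 to 14 days. Scored visually relative to untreated controls, 0 (no effect) to 100 (complete control).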

corn (Zea mays) = settings: Zea mays; for Corn plant response rating (crop injury, 0 = no effect, 100 = complete kill) at 62 g/ha: 62 g ai/ha; for Corn plant response rating (crop injury, 0 = no effect, 100 = complete kill) at 125 g/ha: 125 g ai/ha; for Corn plant response rating (crop injury, 0 = no effect, 100 = complete kill) at 250 g/ha: 250 g ai/ha; for Corn plant response rating (crop injury, 0 = no effect, 100 = complete kill) at 500 g/ha: 500 g ai/ha
Outline: as §1

[2] = system: goosegrass (Eleusine indica); settings: Eleusine indica; for pest or weed control at 62 g/ha: 62 g ai/ha; for pest or weed control at 125 g/ha: 125 g ai/ha; for pest or weed control at 250 g/ha: 250 g ai/ha; for pest or weed control at 500 g/ha: 500 g ai/ha
Outline: as §1

[3] = post-emergence, Postemergence, scale 0 to 100 (0 no effect, 100 complete control), read-out: Surinam Grass plant response rating
[4] = post-emergence, Postemergence, scale 0 to 100, read-out: Plant response rating, Surinam Grass
[5] = pre-emergence, Preemergence, scale 0 to 100, 0 no effect, 100 complete control, read-out: Plant response rating, Surinam Grass
[6] = pre-emergence, Preemergence, scale 0 to 100, read-out: Plant response rating, Surinam Grass
[7] = post-emergence, Postemergence, scale 0 to 100 (0 no effect, 100 complete control), read-out: Corn plant response rating
[8] = post-emergence, Postemergence, scale 0 to 100
[9] = pre-emergence, Preemergence, scale 0 to 100, 0 no effect, 100 complete control, read-out: Plant response rating, Corn
[10] = pre-emergence, Preemergence, scale 0 to 100, read-out: Plant response rating, Corn
[11] = pre-emergence, Preemergence, scale 0 to 100
[12] = post-emergence, Postemergence, scale 0 to 100 (0 no effect, 100 complete control), read-out: Goosegrass plant response rating
[13] = post-emergence, Postemergence, scale 0 to 100, read-out: Plant response rating, Goosegrass
[14] = pre-emergence, Preemergence, scale 0 to 100, 0 no effect, 100 complete control, read-out: Plant response rating, Goosegrass
[15] = pre-emergence, Preemergence, scale 0 to 100, read-out: Plant response rating, Goosegrass

Molecule CCOC(=O)c1nc(C2CC2)nc(N)c1Br [Compound 1, ethyl 6-amino-5-bromo-2-cyclopropyl-4-pyrimidinecarboxylate] has a pest or weed control at 125 g/ha [1, 3] of 90%, a pest or weed control at 500 g/ha [1, 4] of 95% and a pest or weed control at 62 g/ha [1, 3] of 90%. For the same molecule, the pest or weed control at 250 g/ha [1, 4] was 90%, the pest or weed control at 62 g/ha [1, 5] was 0% and the pest or weed control at 125 g/ha [1, 6] was 35%. For the same molecule, the pest or weed control at 250 g/ha [1, 6] was 90%, the pest or weed control at 500 g/ha [1, 6] was 90% and the Corn plant response rating (crop injury, 0 = no effect, 100 = complete kill) at 62 g/ha (corn (Zea mays); [7]) was 10%. The Corn plant response rating (crop injury, 0 = no effect, 100 = complete kill) at 125 g/ha (corn (Zea mays); [7]) was 15%, the Corn plant response rating (crop injury, 0 = no effect, 100 = complete kill) at 250 g/ha (corn (Zea mays); [8]) was 40% and the Corn plant response rating (crop injury, 0 = no effect, 100 = complete kill) at 500 g/ha (corn (Zea mays); [8]) was 45%. For the same molecule, the Corn plant response rating (crop injury, 0 = no effect, 100 = complete kill) at 62 g/ha (corn (Zea mays); [9]) was 0%, the Corn plant response rating (crop injury, 0 = no effect, 100 = complete kill) at 125 g/ha (corn (Zea mays); [10]) was 0% and the Corn plant response rating (crop injury, 0 = no effect, 100 = complete kill) at 250 g/ha (corn (Zea mays); [11]) was 50%. For the same molecule, the Corn plant response rating (crop injury, 0 = no effect, 100 = complete kill) at 500 g/ha (corn (Zea mays); [11]) was 70%, the pest or weed control at 62 g/ha [2, 12] was 0% and the pest or weed control at 125 g/ha [2, 12] was 0%. For the same molecule, the pest or weed control at 250 g/ha [2, 13] was 40%, the pest or weed control at 500 g/ha [2, 13] was 70% and the pest or weed control at 62 g/ha [2, 14] was 0%. For the same molecule, the pest or weed control at 125 g/ha [2, 15] was 0%, the pest or weed control at 250 g/ha [2, 15] was 10% and the pest or weed control at 500 g/ha [2, 15] was 70%.

In the case of CNc1nc(C2CC2)nc(C(=O)OC)c1Br [Compound 5], the pest or weed control at 125 g/ha [1, 3] is reported as 20%, the pest or weed control at 500 g/ha [1, 4] is reported as 70% and the pest or weed control at 62 g/ha [1, 3] is reported as 0%. The pest or weed control at 250 g/ha [1, 4] was 30%, the pest or weed control at 62 g/ha [1, 5] was 0% and the pest or weed control at 125 g/ha [1, 6] was 0%. For the same molecule, the pest or weed control at 250 g/ha [1, 6] was 0%, the pest or weed control at 500 g/ha [1, 6] was 0% and the Corn plant response rating (crop injury, 0 = no effect, 100 = complete kill) at 62 g/ha (corn (Zea mays); [7]) was 10%. The Corn plant response rating (crop injury, 0 = no effect, 100 = complete kill) at 125 g/ha (corn (Zea mays); [7]) was 40%, the Corn plant response rating (crop injury, 0 = no effect, 100 = complete kill) at 250 g/ha (corn (Zea mays); [8]) was 40% and the Corn plant response rating (crop injury, 0 = no effect, 100 = complete kill) at 500 g/ha (corn (Zea mays); [8]) was 45%. For the same molecule, the Corn plant response rating (crop injury, 0 = no effect, 100 = complete kill) at 62 g/ha (corn (Zea mays); [9]) was 5%, the Corn plant response rating (crop injury, 0 = no effect, 100 = complete kill) at 125 g/ha (corn (Zea mays); [10]) was 5% and the Corn plant response rating (crop injury, 0 = no effect, 100 = complete kill) at 250 g/ha (corn (Zea mays); [11]) was 20%. The Corn plant response rating (crop injury, 0 = no effect, 100 = complete kill) at 500 g/ha (corn (Zea mays); [11]) was 50%, the pest or weed control at 62 g/ha [2, 12] was 0% and the pest or weed control at 125 g/ha [2, 12] was 5%. The pest or weed control at 250 g/ha [2, 13] was 40%, the pest or weed control at 500 g/ha [2, 13] was 50% and the pest or weed control at 62 g/ha [2, 14] was 0%. For the same molecule, the pest or weed control at 125 g/ha [2, 15] was 0%, the pest or weed control at 250 g/ha [2, 15] was 0% and the pest or weed control at 500 g/ha [2, 15] was 40%.

COC(=O)c1nc(C2CC2)nc(N)c1I [Compound 7] was tested, and the pest or weed control at 125 g/ha [1, 3] was 0%, the pest or weed control at 500 g/ha [1, 4] was 0% and the pest or weed control at 62 g/ha [1, 3] was 0%. It also gave a pest or weed control at 250 g/ha [1, 4] of 0%, a Corn plant response rating (crop injury, 0 = no effect, 100 = complete kill) at 62 g/ha (corn (Zea mays); [7]) of 0% and a Corn plant response rating (crop injury, 0 = no effect, 100 = complete kill) at 125 g/ha (corn (Zea mays); [7]) of 0%. For the same molecule, the Corn plant response rating (crop injury, 0 = no effect, 100 = complete kill) at 250 g/ha (corn (Zea mays); [8]) was 0%, the Corn plant response rating (crop injury, 0 = no effect, 100 = complete kill) at 500 g/ha (corn (Zea mays); [8]) was 0% and the pest or weed control at 62 g/ha [2, 12] was 0%. It also gave a pest or weed control at 125 g/ha [2, 12] of 0%, a pest or weed control at 250 g/ha [2, 13] of 0% and a pest or weed control at 500 g/ha [2, 13] of 0%.
